Experiments:
Assay in all cases: Glasshouse herbicide test, pre- and post-emergence
Format in all cases: in vivo
[1] = system: Alopecurus myosuroides (ALOMY); conditions: 250 g/h, evaluated after 13 days, five-point scale; for percentage damage caused to the plant, ALOMY POST: post-emergence; for percentage damage caused to the plant, ALOMY PRE: pre-emergence
Method: (§1) Seeds of a variety of test species are sown in standard soil in pots (Lolium perenne (LOLPE), Setaria faberi (SETFA), Alopecurus myosuroides (ALOMY), Echinochloa crus-galli (ECHCG), Avena fatua (AVEFA)). After cultivation for one day (pre-emergence) or after 8 days cultivation (post-emergence) under controlled conditions in a glasshouse (at 24/16° C., day/night; 14 hours light; 65% humidity), the plants are sprayed with an aqueous spray solution derived from the formulation of the technical active ingredient in acetone/water (50:50) solution containing 0.5% Tween 20 (polyoxyethelyene sorbitan monolaurate, CAS RN 9005-64-5). Compounds are applied at 250 g/h. The test plants are then grown in a glasshouse under controlled conditions in a glasshouse (at 24/16° C., day/night; 14 hours light; 65% humidity) and watered twice daily. After 13 days for pre and post-emergence, the test is evaluated for the percentage damage caused to the plant. The biological activities are shown in the following table on a five-point scale (5=80-100%; 4=60-79%; 3=40-59%; 2=20-39%; 1=0-19%).

Avena fatua (AVEFA) = conditions: 250 g/h, evaluated after 13 days, five-point scale; for percentage damage caused to the plant, AVEFA POST: post-emergence; for percentage damage caused to the plant, AVEFA PRE: pre-emergence
Method: as §1

[2] = system: Echinochloa crus-galli (ECHCG); conditions: 250 g/h, evaluated after 13 days, five-point scale; for percentage damage caused to the plant, ECHCG POST: post-emergence; for percentage damage caused to the plant, ECHCG PRE: pre-emergence
Method: as §1

Lolium perenne (LOLPE) = conditions: 250 g/h, evaluated after 13 days, five-point scale; for percentage damage caused to the plant, LOLPE POST: post-emergence; for percentage damage caused to the plant, LOLPE PRE: pre-emergence
Method: as §1

Setaria faberi (SETFA) = conditions: 250 g/h, evaluated after 13 days, five-point scale; for percentage damage caused to the plant, SETFA POST: post-emergence; for percentage damage caused to the plant, SETFA PRE: pre-emergence
Method: as §1

## CC#Cc1cc(C)c(C2C(=O)CC3(CCC(NC(=O)C(=O)NC)CC3)CC2=O)c(C)c1 (centres unmarked) [Compound 2.007]
[1]
  percentage damage caused to the plant, ALOMY POST: 5 (5=80-100%)
  percentage damage caused to the plant, ALOMY PRE: 5 (5=80-100%)
Avena fatua (AVEFA)
  percentage damage caused to the plant, AVEFA POST: 5 (5=80-100%)
  percentage damage caused to the plant, AVEFA PRE: 5 (5=80-100%)
[2]
  percentage damage caused to the plant, ECHCG POST: 5 (5=80-100%)
  percentage damage caused to the plant, ECHCG PRE: 5 (5=80-100%)
Lolium perenne (LOLPE)
  percentage damage caused to the plant, LOLPE POST: 5 (5=80-100%)
  percentage damage caused to the plant, LOLPE PRE: 5 (5=80-100%)
Setaria faberi (SETFA)
  percentage damage caused to the plant, SETFA POST: 5 (5=80-100%)
  percentage damage caused to the plant, SETFA PRE: 5 (5=80-100%)

## CC#Cc1cc(C)c(C2C(=O)CC3(CCC(NC(=O)COC(F)F)CC3)CC2=O)c(C)c1 (centres unmarked) [Compound 2.008]
[1]
  percentage damage caused to the plant, ALOMY POST: 5 (5=80-100%)
  percentage damage caused to the plant, ALOMY PRE: 5 (5=80-100%)
Avena fatua (AVEFA)
  percentage damage caused to the plant, AVEFA POST: 5 (5=80-100%)
  percentage damage caused to the plant, AVEFA PRE: 5 (5=80-100%)
[2]
  percentage damage caused to the plant, ECHCG POST: 5 (5=80-100%)
  percentage damage caused to the plant, ECHCG PRE: 5 (5=80-100%)
Lolium perenne (LOLPE)
  percentage damage caused to the plant, LOLPE POST: 5 (5=80-100%)
  percentage damage caused to the plant, LOLPE PRE: 5 (5=80-100%)
Setaria faberi (SETFA)
  percentage damage caused to the plant, SETFA POST: 5 (5=80-100%)
  percentage damage caused to the plant, SETFA PRE: 5 (5=80-100%)

## CC#Cc1cc(C)c(C2C(=O)CC3(CCC(NC(=O)C4COCCO4)CC3)CC2=O)c(C)c1 (centres unmarked) [Compound 2.009]
[1]
  percentage damage caused to the plant, ALOMY POST: 4 (4=60-79%)
  percentage damage caused to the plant, ALOMY PRE: 4 (4=60-79%)
Avena fatua (AVEFA)
  percentage damage caused to the plant, AVEFA POST: 5 (5=80-100%)
  percentage damage caused to the plant, AVEFA PRE: 4 (4=60-79%)
[2]
  percentage damage caused to the plant, ECHCG POST: 5 (5=80-100%)
  percentage damage caused to the plant, ECHCG PRE: 5 (5=80-100%)
Lolium perenne (LOLPE)
  percentage damage caused to the plant, LOLPE POST: 5 (5=80-100%)
  percentage damage caused to the plant, LOLPE PRE: 5 (5=80-100%)
Setaria faberi (SETFA)
  percentage damage caused to the plant, SETFA POST: 5 (5=80-100%)
  percentage damage caused to the plant, SETFA PRE: 5 (5=80-100%)

## CC#Cc1cc(C)c(C2C(=O)CC3(CCC(NC(=O)CC#N)CC3)CC2=O)c(C)c1 (centres unmarked) [Compound 2.010]
[1]
  percentage damage caused to the plant, ALOMY POST: 5 (5=80-100%)
  percentage damage caused to the plant, ALOMY PRE: 5 (5=80-100%)
Avena fatua (AVEFA)
  percentage damage caused to the plant, AVEFA POST: 5 (5=80-100%)
  percentage damage caused to the plant, AVEFA PRE: 5 (5=80-100%)
[2]
  percentage damage caused to the plant, ECHCG POST: 5 (5=80-100%)
  percentage damage caused to the plant, ECHCG PRE: 5 (5=80-100%)
Lolium perenne (LOLPE)
  percentage damage caused to the plant, LOLPE POST: 5 (5=80-100%)
  percentage damage caused to the plant, LOLPE PRE: 5 (5=80-100%)
Setaria faberi (SETFA)
  percentage damage caused to the plant, SETFA POST: 5 (5=80-100%)
  percentage damage caused to the plant, SETFA PRE: 5 (5=80-100%)

## CC#Cc1cc(C)c(C2C(=O)CC3(CCC(NC(=O)C(F)F)CC3)CC2=O)c(C)c1 (centres unmarked) [Compound 2.011]
[1]
  percentage damage caused to the plant, ALOMY POST: 5 (5=80-100%)
  percentage damage caused to the plant, ALOMY PRE: 5 (5=80-100%)
Avena fatua (AVEFA)
  percentage damage caused to the plant, AVEFA POST: 5 (5=80-100%)
  percentage damage caused to the plant, AVEFA PRE: 5 (5=80-100%)
[2]
  percentage damage caused to the plant, ECHCG POST: 5 (5=80-100%)
  percentage damage caused to the plant, ECHCG PRE: 5 (5=80-100%)
Lolium perenne (LOLPE)
  percentage damage caused to the plant, LOLPE POST: 5 (5=80-100%)
  percentage damage caused to the plant, LOLPE PRE: 5 (5=80-100%)
Setaria faberi (SETFA)
  percentage damage caused to the plant, SETFA POST: 5 (5=80-100%)
  percentage damage caused to the plant, SETFA PRE: 5 (5=80-100%)

## CC#Cc1cc(C)c(C2C(=O)CC3(CCC(NC(=O)Nc4ccccn4)CC3)CC2=O)c(C)c1 (centres unmarked) [Compound 2.012]
[1]
  percentage damage caused to the plant, ALOMY POST: 4 (4=60-79%)
  percentage damage caused to the plant, ALOMY PRE: 4 (4=60-79%)
Avena fatua (AVEFA)
  percentage damage caused to the plant, AVEFA POST: 5 (5=80-100%)
  percentage damage caused to the plant, AVEFA PRE: 3 (3=40-59%)
[2]
  percentage damage caused to the plant, ECHCG POST: 4 (4=60-79%)
  percentage damage caused to the plant, ECHCG PRE: 4 (4=60-79%)
Lolium perenne (LOLPE)
  percentage damage caused to the plant, LOLPE POST: 5 (5=80-100%)
  percentage damage caused to the plant, LOLPE PRE: 5 (5=80-100%)
Setaria faberi (SETFA)
  percentage damage caused to the plant, SETFA POST: 4 (4=60-79%)
  percentage damage caused to the plant, SETFA PRE: 4 (4=60-79%)

## CC#Cc1cc(C)c(C2C(=O)CC3(CCC(NC(=O)CCC#N)CC3)CC2=O)c(C)c1 (centres unmarked) [Compound 2.013]
[1]
  percentage damage caused to the plant, ALOMY POST: 5 (5=80-100%)
  percentage damage caused to the plant, ALOMY PRE: 3 (3=40-59%)
Avena fatua (AVEFA)
  percentage damage caused to the plant, AVEFA POST: 5 (5=80-100%)
  percentage damage caused to the plant, AVEFA PRE: 5 (5=80-100%)
[2]
  percentage damage caused to the plant, ECHCG POST: 5 (5=80-100%)
  percentage damage caused to the plant, ECHCG PRE: 5 (5=80-100%)
Lolium perenne (LOLPE)
  percentage damage caused to the plant, LOLPE POST: 5 (5=80-100%)
  percentage damage caused to the plant, LOLPE PRE: 5 (5=80-100%)
Setaria faberi (SETFA)
  percentage damage caused to the plant, SETFA POST: 5 (5=80-100%)
  percentage damage caused to the plant, SETFA PRE: 5 (5=80-100%)

## CC#Cc1cc(C)c(C2C(=O)CC3(CCC(NC(=O)c4ccc(OC)nn4)CC3)CC2=O)c(C)c1 (centres unmarked) [Compound 2.014]
[1]
  percentage damage caused to the plant, ALOMY POST: 5 (5=80-100%)
  percentage damage caused to the plant, ALOMY PRE: 5 (5=80-100%)
Avena fatua (AVEFA)
  percentage damage caused to the plant, AVEFA POST: 5 (5=80-100%)
  percentage damage caused to the plant, AVEFA PRE: 5 (5=80-100%)
[2]
  percentage damage caused to the plant, ECHCG POST: 5 (5=80-100%)
  percentage damage caused to the plant, ECHCG PRE: 5 (5=80-100%)
Lolium perenne (LOLPE)
  percentage damage caused to the plant, LOLPE POST: 5 (5=80-100%)
  percentage damage caused to the plant, LOLPE PRE: 5 (5=80-100%)
Setaria faberi (SETFA)
  percentage damage caused to the plant, SETFA POST: 5 (5=80-100%)
  percentage damage caused to the plant, SETFA PRE: 5 (5=80-100%)

## CC#Cc1cc(C)c(C2C(=O)CC3(CCC(NC(=O)c4nccnc4C)CC3)CC2=O)c(C)c1 (centres unmarked) [Compound 2.015]
[1]
  percentage damage caused to the plant, ALOMY POST: 5 (5=80-100%)
  percentage damage caused to the plant, ALOMY PRE: 4 (4=60-79%)
Avena fatua (AVEFA)
  percentage damage caused to the plant, AVEFA POST: 5 (5=80-100%)
  percentage damage caused to the plant, AVEFA PRE: 5 (5=80-100%)
[2]
  percentage damage caused to the plant, ECHCG POST: 5 (5=80-100%)
  percentage damage caused to the plant, ECHCG PRE: 5 (5=80-100%)
Lolium perenne (LOLPE)
  percentage damage caused to the plant, LOLPE POST: 5 (5=80-100%)
  percentage damage caused to the plant, LOLPE PRE: 5 (5=80-100%)
Setaria faberi (SETFA)
  percentage damage caused to the plant, SETFA POST: 5 (5=80-100%)
  percentage damage caused to the plant, SETFA PRE: 5 (5=80-100%)

## CC#Cc1cc(C)c(C2C(=O)CC3(CCC(NC(=O)c4cnco4)CC3)CC2=O)c(C)c1 (centres unmarked) [Compound 2.016]
[1]
  percentage damage caused to the plant, ALOMY POST: 4 (4=60-79%)
  percentage damage caused to the plant, ALOMY PRE: 3 (3=40-59%)
Avena fatua (AVEFA)
  percentage damage caused to the plant, AVEFA POST: 5 (5=80-100%)
  percentage damage caused to the plant, AVEFA PRE: 4 (4=60-79%)
[2]
  percentage damage caused to the plant, ECHCG POST: 5 (5=80-100%)
  percentage damage caused to the plant, ECHCG PRE: 5 (5=80-100%)
Lolium perenne (LOLPE)
  percentage damage caused to the plant, LOLPE POST: 5 (5=80-100%)
  percentage damage caused to the plant, LOLPE PRE: 5 (5=80-100%)
Setaria faberi (SETFA)
  percentage damage caused to the plant, SETFA POST: 5 (5=80-100%)
  percentage damage caused to the plant, SETFA PRE: 5 (5=80-100%)

## CC#Cc1cc(C)c(C2C(=O)CC3(CCC(NC(=O)[C@H](C)O)CC3)CC2=O)c(C)c1 (some centres unmarked) [Compound 2.017]
[1]
  percentage damage caused to the plant, ALOMY POST: 5 (5=80-100%)
  percentage damage caused to the plant, ALOMY PRE: 4 (4=60-79%)
Avena fatua (AVEFA)
  percentage damage caused to the plant, AVEFA POST: 5 (5=80-100%)
  percentage damage caused to the plant, AVEFA PRE: 4 (4=60-79%)
[2]
  percentage damage caused to the plant, ECHCG POST: 5 (5=80-100%)
  percentage damage caused to the plant, ECHCG PRE: 5 (5=80-100%)
Lolium perenne (LOLPE)
  percentage damage caused to the plant, LOLPE POST: 5 (5=80-100%)
  percentage damage caused to the plant, LOLPE PRE: 4 (4=60-79%)
Setaria faberi (SETFA)
  percentage damage caused to the plant, SETFA POST: 5 (5=80-100%)
  percentage damage caused to the plant, SETFA PRE: 5 (5=80-100%)
